One series relates to humans. Conditions: cited from earlier work.
Another series has as its system pituitary gland; testes. Conditions: in vivo; cited from earlier work.
Series [1] in a line: administration of D-aspartic acid hydrochloride and/or ethyl ester hydrochloride. Conditions: administration by ingestion, injection or nasal spray, 10 mg to 100 g per day. The series is classed as in vivo. Here is the method:
The D-aspartic acid hydrochloride or D-aspartic acid ethyl ester hydrochloride are administered by ingestion of pills, capsules, powdered drink mixes, beverages, confectionaries, syrups, and/or chewable tablets, or by injection of an aqueous solution, or via a nasal spray.

Another series in a line: water solubility. The series is classed as physicochemical.

Take `N[C@H](CC(=O)O)C(=O)O` [D-aspartic acid]: in the series on humans (oral, almost four (4) grams a day, men), the LH levels result was “increased significantly”. Also, the “rise of testosterone, level greater than day zero” value in the series on humans (oral, almost four (4) grams a day, peak on day twelve (12), twenty-three (23) men) is given as 42%. Besides, in the series on humans (three (3) days after discontinuation), the “levels of testosterone after discontinuation” value is reported as “still significantly increased”. Moreover, in the series on pituitary gland; testes, the “effect in the testes upon testosterone production” value was “direct stimulating effect”; the “release of Luteinizing Hormone (LH) and Growth Hormone (GH) from the pituitary gland” value is recorded as “stimulate the release”.
Turning to `Cl.N[C@H](CC(=O)O)C(=O)O` [D-aspartic acid hydrochloride], in series [1], the “LH and HGH levels” value is reported as “increase”; the libido and/or mood entry is given as “improves/increases”; the “strength, muscle mass, endurance and rate of recovery” value was “increases”; the testosterone entry is on record as “increase”.
Regarding `CCOC(=O)C[C@@H](N)C(=O)OCC.Cl` [D-aspartic acid diethyl ester hydrochloride], the “water solubility (in words)” value in the series “water solubility” is “high water solubility”. Moreover, in series [1], the “LH and HGH levels” value is reported as “increase”; the libido and/or mood entry is recorded as “improves/increases”; the “strength, muscle mass, endurance and rate of recovery” value is “increases”; the testosterone entry is “increase”.

Source of the values: US20120270943A1 (priority 2011, published 2012).
